In brackets after ≈: the same amount, converted by molar mass. Where two headings read alike, the source gives them in different places.
Key:
[1] = Acetone/Water 90:10 w/w, cited from earlier work
[2] = Solubility of milvexian forms in organic solvent systems; assay type: physicochemical; settings: for solubility: organic solvent or mixture
Experimental: While heating of the feed solution is a viable solution for production, it is a more complex set-up and with risk of crashing out dissolved solids in case of cold spots and plant safety. Various solvent systems (See Table 11 below) were investigated with primary focus on solvent systems containing DCM due to its low boiling point and excellent solubilization properties.
Based on the data it was determined that 70/30 w/w % DCM/MeOH and 80/20 w/w % were promising solvent mixtures and more accurate solubility determination was carried out for 80/20 w/w % DCM/MeOH for both FORM A and P1.Acetone solvate at 20° C. with the results shown in Table 12 below.
P1.Acetone was the preferred crystalline form of milvexian for physical stability and manufacturability reasons. Based on the above, 80/20 w/w % DCM/MeOH solvent system was selected for development due to highly increase solubility over the 90/10 w/w % Acetone/Water solvent system.

## C[C@@H]1CCC[C@H](n2cnc(-c3cc(Cl)ccc3-n3cc(Cl)nn3)cc2=O)c2cc(ccn2)-c2c(cnn2C(F)F)NC1=O [Milvexian, (5R,9S)-9-(4-(5-chloro-2-(4-chloro-1H-1,2,3-triazol-1-yl)phenyl)-6-oxopyrimidin-1(6H)-yl)-21-(difluoromethvl)-5-methyl-21H-3-aza-1(4,2)-pyridina-2(5,4)-pyrazolacyclononaphan-4-one]
[1]; 20° C.
  solubility: 36 mg/mL (≈ 57.5 mM)
[1]; 50° C.
  solubility: 70 mg/mL (≈ 112 mM)
[2]; 30/70 DCM/MeOH, 20 °C, 30/70 DCM/MeOH, temperature 20, read-out: Solubility in mg/mL solution
  solubility: 16 mg/mL (≈ 25.5 mM)
[2]; 30/70 DCM/MeOH, 40 °C, 30/70 DCM/MeOH, temperature 40, read-out: Solubility in mg/mL solution
  solubility: 26 mg/mL (≈ 41.5 mM)
[2]; 30/70 DCM/MeOH, temperature 20
  Solubility description: Sparingly soluble
[2]; 30/70 DCM/MeOH, temperature 40
  Solubility description: Sparingly soluble
[2]; 40/60 DCM/MeOH, 20 °C, 40/60 DCM/MeOH, temperature 20, read-out: Solubility in mg/mL solution
  solubility: 29 mg/mL (≈ 46.3 mM)
[2]; 40/60 DCM/MeOH, 40 °C, 40/60 DCM/MeOH, temperature 40, read-out: Solubility in mg/mL solution
  solubility: 44 mg/mL (≈ 70.2 mM)
[2]; 40/60 DCM/MeOH, temperature 20
  Solubility description: Sparingly soluble
[2]; 40/60 DCM/MeOH, temperature 40
  Solubility description: Soluble
[2]; 50/50 DCM/MeOH, 20 °C, 50/50 DCM/MeOH, temperature 20, read-out: Solubility in mg/mL solution
  solubility: 58 mg/mL (≈ 92.6 mM)
[2]; 50/50 DCM/MeOH, 40 °C, 50/50 DCM/MeOH, temperature 40, read-out: Solubility in mg/mL solution
  solubility: 77 mg/mL (≈ 123 mM)
[2]; 50/50 DCM/MeOH, temperature 20
  Solubility description: Soluble
[2]; 50/50 DCM/MeOH, temperature 40
  Solubility description: Soluble
[2]; 60/40 DCM/MeOH, 20 °C, 60/40 DCM/MeOH, temperature 20, read-out: Solubility in mg/mL solution
  solubility: 120 mg/mL (≈ 192 mM)
[2]; 60/40 DCM/MeOH, 40 °C, 60/40 DCM/MeOH, temperature 40, read-out: Solubility in mg/mL solution
  solubility: > 200 mg/mL
[2]; 60/40 DCM/MeOH, temperature 20
  Solubility description: Freely Soluble
[2]; 60/40 DCM/MeOH, temperature 40
  Solubility description: Freely Soluble
[2]; 70/30 DCM/MeOH, 20 °C, 70/30 DCM/MeOH, temperature 20, read-out: Solubility in mg/mL solution
  solubility: > 200 mg/mL
[2]; 70/30 DCM/MeOH, 40 °C, 70/30 DCM/MeOH, temperature 40, read-out: Solubility in mg/mL solution
  solubility: > 200 mg/mL
[2]; 70/30 DCM/MeOH, temperature 20
  Solubility description: Freely Soluble
[2]; 70/30 DCM/MeOH, temperature 40
  Solubility description: Freely Soluble
[2]; 80/20 DCM/MeOH, 20 °C, 80/20 DCM/MeOH, temperature 20, read-out: Solubility in mg/mL solution
  solubility: > 200 mg/mL
[2]; 80/20 DCM/MeOH, 40 °C, 80/20 DCM/MeOH, temperature 40, read-out: Solubility in mg/mL solution
  solubility: > 200 mg/mL
[2]; 80/20 DCM/MeOH, temperature 20
  Solubility description: Freely Soluble
[2]; 80/20 DCM/MeOH, temperature 40
  Solubility description: Freely Soluble
[2]; 90/10 DCM/MeOH, 20 °C, 90/10 DCM/MeOH, temperature 20, read-out: Solubility in mg/mL solution
  solubility: > 200 mg/mL
[2]; 90/10 DCM/MeOH, 40 °C, 90/10 DCM/MeOH, temperature 40, read-out: Solubility in mg/mL solution
  solubility: > 200 mg/mL
[2]; 90/10 DCM/MeOH, temperature 20
  Solubility description: Freely Soluble
[2]; 90/10 DCM/MeOH, temperature 40
  Solubility description: Freely Soluble
[2]; 100% DCM, 20 °C, 100% DCM, temperature 20, read-out: Solubility in mg/mL solution
  solubility: 29 mg/mL (≈ 46.3 mM)
[2]; 100% DCM, 40 °C, 100% DCM, temperature 40, read-out: Solubility in mg/mL solution
  solubility: 51 mg/mL (≈ 81.4 mM)
[2]; 100% DCM, temperature 20
  Solubility description: Sparingly soluble
[2]; 100% DCM, temperature 40
  Solubility description: Soluble
[2]; 100% MeOH, 20 °C, 100% MeOH, temperature 20, read-out: Solubility in mg/mL solution
  solubility: 4.2 mg/mL (≈ 6.7 mM)
[2]; 100% MeOH, 40 °C, 100% MeOH, temperature 40, read-out: Solubility in mg/mL solution
  solubility: 6.6 mg/mL (≈ 10.5 mM)
[2]; 100% MeOH, temperature 20
  Solubility description: Slightly soluble
[2]; 100% MeOH, temperature 40
  Solubility description: Slightly soluble
[2]; acetone/water 90/10 w/w %, 20 °C, acetone/water (90/10 w/w %), room temperature, read-out: solubility
  solubility: 36 mg/mL (≈ 57.5 mM)
[2]; acetone/water 90/10 w/w %, 49 °C, acetone/water (90/10 w/w %), 49° C., read-out: solubility
  solubility: 70 mg/mL (≈ 112 mM)

From patent publication US20260224494A1, “MILVEXIAN PHARMACEUTICAL COMPOSITIONS” (BRISTOL-MYERS SQUIBB COMPANY, priority 2023, published 2026)
